# Assay results as given in publication PMC11915375 (ACS Infectious Diseases, 2025).
# Read-outs that look alike come from different tables or passages of the source.
# Key:
# T. cruzi = details: read-out: T. cruzi EC50; different host cell line (NIH3T3), assay run at NYU; cited from earlier work
# [1] = test system: Leishmania major amastigotes; details: read-out: L. maj EC50; 12a, 12b previously reported compounds; cited from earlier work
# T. brucei [2] = details: read-out: T. brucei EC50; assay run at NYU; cited from earlier work
# L. donovani = L. donovani in vitro assay; type: cell-based, Leishmania donovani; details: Leishmania donovani, read-out: L. don EC50, B10R host cell line
# T. cruzi CA-I/72 = test: T. cruzi in vitro assay, C2C12 host cell; type: cell-based, Trypanosoma cruzi; details: Trypanosoma cruzi, C2C12, read-out: T. cruzi EC50
# [3] = test system: Leishmania major amastigotes; test: Leishmania major amastigote assay; type: cell-based; details: Leishmania major, read-out: L. maj EC50
# T. brucei [4] = test: T. brucei proliferation inhibition assay; type: cell-based, Trypanosoma brucei; details: Trypanosoma brucei, read-out: T. brucei EC50 ± S.D.
# S. mansoni adult worms = test: S. mansoni adult worm phenotypic assay; type: cell-based, Schistosoma mansoni; details: scale 0-4
EC50 [3] [µM],SMILES,EC50 (T. cruzi) [µM],EC50 [1] [µM],EC50 (T. brucei [2]) [µM],EC50 (L. donovani) [µM],EC50 (T. cruzi CA-I/72) [µM],EC50 (T. brucei [4]) [µM],Adult severity score (10 µM) 5 h (S. mansoni adult worms)
4.2,"CN1CCN(c2ccc(-c3ccc4c(Nc5ncc(Cl)cn5)cnnc4c3)cc2)CC1 [Compound 22b, N-(5-Chloropyrimidin-2-yl)-7-(4-(4-methylpiperazin-1-yl)phenyl)cinnolin-4-amine]",,,,> 10,2.3,0.72 ± 0.47,
4.7,"COc1ccc(Nc2cnnc3ccc(-c4ccc(N5CCN(C)CC5)cc4)cc23)cc1 [Compound 23a, N-(4-Methoxyphenyl)-6-(4-(4-methylpiperazin-1-yl)phenyl)cinnolin-4-amine]",,,,2.3,1.7,0.31 ± 0.18,
> 21,"CN1CCN(c2ccc(-c3ccc4nncc(Nc5ccc(OC(F)(F)F)cc5)c4c3)cc2)CC1 [Compound 24a, 6-(4-(4-Methylpiperazin-1-yl)phenyl)-N-(4-(trifluoromethoxy)phenyl)cinnolin-4-amine]",,,,0.52,0.87,0.41 ± 0.024,
> 4.7,"COc1cnc(Nc2cnnc3ccc(-c4ccc(N5CCN(C)CC5)cc4)cc23)nc1 [Compound 25a, N-(5-Methoxypyrimidin-2-yl)-6-(4-(4-methylpiperazin-1-yl)phenyl)cinnolin-4-amine]",,,,9.4,6.1,1.2 ± 0.38,
> 23,"COc1ccc(Nc2cnnc3ccc(-c4cnc(N5CCN(C)CC5)nc4)cc23)cc1 [Compound 27a, N-(4-Methoxyphenyl)-6-(2-(4-methylpiperazin-1-yl)pyrimidin-5-yl)cinnolin-4-amine]",,,,> 10,4.4,1.3 ± 0.27,
> 21,"CN1CCN(c2ncc(-c3ccc4nncc(Nc5ccc(OC(F)(F)F)cc5)c4c3)cn2)CC1 [Compound 28a, 6-(2-(4-Methylpiperazin-1-yl)pyrimidin-5-yl)-N-(4-(trifluoromethoxy)phenyl)cinnolin-4-amine]",,,,1.5,4.2,1 ± 0.12,
> 22,"CN1CCCN(c2ncc(-c3ccc4nncc(Nc5ncc(Cl)cn5)c4c3)cn2)CC1 [Compound 29a, N-(5-Chloropyrimidin-2-yl)-6-(2-(4-methyl-1,4-diazepan-1-yl)pyrimidin-5-yl)cinnolin-4-amine]",,,,0.22,6.7,1.7 ± 0.5,
> 23,"COc1ccc(Nc2cnnc3ccc(-c4cnc(N5CCCN(C)CC5)nc4)cc23)cc1 [Compound 30a, N-(4-Methoxyphenyl)-6-(2-(4-methyl-1,4-diazepan-1-yl)pyrimidin-5-yl)cinnolin-4-amine]",,,,> 10,5.1,2.1 ± 0.64,
> 20,"CN1CCCN(c2ncc(-c3ccc4nncc(Nc5ccc(OC(F)(F)F)cc5)c4c3)cn2)CC1 [Compound 31a, 6-(2-(4-Methyl-1,4-diazepan-1-yl)pyrimidin-5-yl)-N-(4-(trifluoromethoxy)phenyl)cinnolin-4-amine]",,,,> 10,> 10,0.25 ± 0.11,
> 23,"COc1cnc(Nc2cnnc3ccc(-c4cnc(N5CCCN(C)CC5)nc4)cc23)nc1 [Compound 32a, N-(5-Methoxypyrimidin-2-yl)-6-(2-(4-methyl-1,4-diazepan-1-yl)pyrimidin-5-yl)cinnolin-4-amine]",,,,8,> 10,2.9 ± 0.8,
17,"CN1CCCN(S(=O)(=O)c2ccc(-c3ccc4nncc(Nc5ncc(Cl)cn5)c4c3)cc2)CC1 [Compound 33a, N-(5-Chloropyrimidin-2-yl)-6-(4-((4-methyl-1,4-diazepan-1-yl)sulfonyl)phenyl)cinnolin-4-amine]",,,,> 10,5.3,0.99 ± 0.29,
> 18,"CN1CCCN(S(=O)(=O)c2ccc(-c3ccc4nncc(Nc5ccc(OC(F)(F)F)cc5)c4c3)cc2)CC1 [Compound 34a, 6-(4-((4-Methyl-1,4-diazepan-1-yl)sulfonyl)phenyl)-N-(4-(trifluoromethoxy)phenyl)cinnolin-4-amine]",,,,1.8,> 10,0.65 ± 0.021,

# Continued, compound first:
SMILES,EC50 [3] [µM],EC50 (T. cruzi) [µM],EC50 [1] [µM],EC50 (T. brucei [2]) [µM],EC50 (L. donovani) [µM],EC50 (T. cruzi CA-I/72) [µM],EC50 (T. brucei [4]) [µM],Adult severity score (10 µM) 5 h (S. mansoni adult worms)
"CN1CCN(S(=O)(=O)c2ccc(-c3ccc4nncc(Nc5ccc(OCc6cccc(F)c6)c(Cl)c5)c4c3)cc2)CC1 [Compound 12a, N-(3-Chloro-4-((3-fluorobenzyl)oxy)phenyl)-6-(4-((4-methylpiperazin-1-yl)sulfonyl)phenyl)cinnolin-4-amine]",,> 50,1.9,0.98,,,,
"CN1CCN(S(=O)(=O)c2ccc(-c3ccc4c(Nc5ccc(OCc6cccc(F)c6)c(Cl)c5)cnnc4c3)cc2)CC1 [Compound 12b, N-(3-Chloro-4-((3-fluorobenzyl)oxy)phenyl)-7-(4-((4-methylpiperazin-1-yl)sulfonyl)phenyl)cinnolin-4-amine]",,3.1,2,1,,,,
"CN1CCN(S(=O)(=O)c2ccc(-c3ccc4nncc(Nc5cnccn5)c4c3)cc2)CC1 [Compound 15a, 6-(4-((4-Methylpiperazin-1-yl)sulfonyl)phenyl)-N-(pyrazin-2-yl)cinnolin-4-amine]",7.8,,,,> 10,> 10,1.2 ± 0.18,
"CN1CCN(S(=O)(=O)c2ccc(-c3ccc4c(Nc5cnccn5)cnnc4c3)cc2)CC1 [Compound 15b, 7-(4-((4-Methylpiperazin-1-yl)sulfonyl)phenyl)-N-(pyrazin-2-yl)cinnolin-4-amine]",> 22,,,,5.52,6.5 ± 2.3,9.7 ± 2.1,
"CN1CCN(S(=O)(=O)c2ccc(-c3ccc4c(Nc5ncccn5)cnnc4c3)cc2)CC1 [Compound 16b, 7-(4-((4-Methylpiperazin-1-yl)sulfonyl)phenyl)-N-(pyrimidin-2-yl)cinnolin-4-amine]",> 11,,,,> 10,> 10,11 ± 1.5,
"COc1ccc(Nc2cnnc3ccc(-c4ccc(S(=O)(=O)N5CCN(C)CC5)cc4)cc23)cc1Cl [Compound 17a, N-(3-Chloro-4-methoxyphenyl)-6-(4-((4-methylpiperazin-1-yl)sulfonyl)phenyl)cinnolin-4-amine]",> 19,,,,9.3,> 10,1.6 ± 0.36,
"COc1ccc(Nc2cnnc3cc(-c4ccc(S(=O)(=O)N5CCN(C)CC5)cc4)ccc23)cc1Cl [Compound 17b, N-(3-Chloro-4-methoxyphenyl)-7-(4-((4-methylpiperazin-1-yl)sulfonyl)phenyl)cinnolin-4-amine]",> 1.9,,,,,> 10,8.3 ± 0.35,4
"COc1ccc(Nc2cnnc3ccc(-c4ccc(S(=O)(=O)N5CCN(C)CC5)cc4)cc23)cc1 [Compound 18a, N-(4-Methoxyphenyl)-6-(4-((4-methylpiperazin-1-yl)sulfonyl)phenyl)cinnolin-4-amine]",> 20,,,,3.4,8,0.39 ± 0.2,
"COc1ccc(Nc2cnnc3ccc(-c4ccc(S(=O)(=O)N5CCN(C)CC5)cc4)cc23)nc1 [Compound 19a, N-(5-Methoxypyridin-2-yl)-6-(4-((4-methylpiperazin-1-yl)sulfonyl)phenyl)cinnolin-4-amine]",> 20,,,,4.9,3.8,1.9 ± 0.073,
"CN1CCN(S(=O)(=O)c2ccc(-c3ccc4nncc(Nc5ccc(OC(F)(F)F)cc5)c4c3)cc2)CC1 [Compound 20a, 6-(4-((4-Methylpiperazin-1-yl)sulfonyl)phenyl)-N-(4-(trifluoromethoxy)phenyl)cinnolin-4-amine]",4.8,,,,0.11,6.8,0.35 ± 0.26,
"COc1cnc(Nc2cnnc3ccc(-c4ccc(S(=O)(=O)N5CCN(C)CC5)cc4)cc23)nc1 [Compound 21a, N-(5-Methoxypyrimidin-2-yl)-6-(4-((4-methylpiperazin-1-yl)sulfonyl)phenyl)cinnolin-4-amine]",> 4.1,,,,5.77,1.3,6.6 ± 1.7,
"CN1CCN(c2ccc(-c3ccc4nncc(Nc5ncc(Cl)cn5)c4c3)cc2)CC1 [Compound 22a, N-(5-Chloropyrimidin-2-yl)-6-(4-(4-methylpiperazin-1-yl)phenyl)cinnolin-4-amine]",> 4.6,,,,> 10,0.31,0.15 ± 0.068,
